Measurements published in PubChem BioAssay AID2060908 (Molecular Pharmacology Branch, DTP, NCI, 2025).

System: 186277-243-T-J2-PDC complex spheroids, viability
Test: Anticancer human tumor 186277-243-T-J2-PDC patient-derived colon adenocarcinoma cell line growth inhibition [RAS]
Settings: for IC50: curve of first compound; for viability, T/C: stronger effect = lower value
Procedure, shortened: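 Tumour cells grown as complex spheroids with HUVEC endothelial cells and mesenchymal stem cells, treated with RAS pathway inhibitor combinations. Each agent spans half-log steps from near clinical Cmax, or 10 microM where Cmax is unknown.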

[1] = second compound 0.000949 µM, first compound 0.0316 µM
[2] = second compound 0.000949 µM, first compound 0.1 µM
[3] = second compound 0.000949 µM, first compound 0.316 µM
[4] = second compound 0.000949 µM, first compound 1 µM
[5] = second compound 0.003 µM, first compound 0.0316 µM
[6] = second compound 0.003 µM, first compound 0.1 µM
[7] = second compound 0.003 µM, first compound 0.316 µM
[8] = second compound 0.003 µM, first compound 1 µM
[9] = second compound 0.00949 µM, first compound 0.0316 µM
[10] = second compound 0.00949 µM, first compound 0.1 µM
[11] = second compound 0.00949 µM, first compound 0.316 µM
[12] = second compound 0.00949 µM, first compound 1 µM
[13] = second compound 0.03 µM, first compound 0.0316 µM
[14] = second compound 0.03 µM, first compound 0.1 µM
[15] = second compound 0.03 µM, first compound 0.316 µM
[16] = second compound 0.03 µM, first compound 1 µM
[17] = second compound 0.0949 µM, first compound 0.0316 µM
[18] = second compound 0.0949 µM, first compound 0.1 µM
[19] = second compound 0.0949 µM, first compound 0.316 µM
[20] = second compound 0.0949 µM, first compound 1 µM
[21] = second compound 0.3 µM, first compound 0.0316 µM
[22] = second compound 0.3 µM, first compound 0.1 µM
[23] = second compound 0.3 µM, first compound 0.316 µM
[24] = second compound 0.3 µM, first compound 1 µM
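Also: spheroids exposed to compounds for 7 days before viability read.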

SMILES: CC(=O)OC12COC1CC(O)C1(C)C(=O)C(O)C3=C(C)C(OC(=O)C(O)C(NC(=O)OC(C)(C)C)c4ccccc4)CC(O)(C(OC(=O)c4ccccc4)C21)C3(C)C (centres undefined) + CCn1c(-c2cccnc2C(C)OC)c2c3cc(ccc31)N1CCOC(CC(NC(=O)C(C(C)C)N(C)C(=O)C3(F)CCN(C(=O)C#CC(C)(C)N(C)C)CC3)C(=O)N3CCCC(N3)C(=O)OCC(C)(C)C2)C1
- IC50 (second compound 0.000949 µM): < 31.6 nM
- IC50 (second compound 0.003 µM): < 31.6 nM
- IC50 (second compound 0.00949 µM): < 31.6 nM
- IC50 (second compound 0.03 µM): < 31.6 nM
- IC50 (second compound 0.0949 µM): < 31.6 nM
- IC50 (second compound 0.3 µM): < 31.6 nM
- viability, T/C [1]: 6.09%
- viability, T/C [2]: 4.29%
- viability, T/C [3]: 4.45%
- viability, T/C [4]: 5%
- viability, T/C (second compound 0.000949 µM, first compound 3.16 µM): 4.34%
- viability, T/C (second compound 0.000949 µM, first compound 10 µM): 4.13%
- viability, T/C [5]: 6%
- viability, T/C [6]: 5.13%
- viability, T/C [7]: 5.03%
- viability, T/C [8]: 4.41%
- viability, T/C (second compound 0.003 µM, first compound 3.16 µM): 4.14%
- viability, T/C (second compound 0.003 µM, first compound 10 µM): 4.35%
- viability, T/C [9]: 6.17%
- viability, T/C [10]: 4.96%
- viability, T/C [11]: 4.57%
- viability, T/C [12]: 4.98%
- viability, T/C (second compound 0.00949 µM, first compound 3.16 µM): 4.48%
- viability, T/C (second compound 0.00949 µM, first compound 10 µM): 3.96%
- viability, T/C [13]: 5.87%
- viability, T/C [14]: 4.93%
- viability, T/C [15]: 4.72%
- viability, T/C [16]: 3.83%
- viability, T/C (second compound 0.03 µM, first compound 3.16 µM): 4.63%
- viability, T/C (second compound 0.03 µM, first compound 10 µM): 4.2%
- viability, T/C [17]: 5.78%
- viability, T/C [18]: 4.53%
- viability, T/C [19]: 4.78%
- viability, T/C [20]: 4.23%
- viability, T/C (second compound 0.0949 µM, first compound 3.16 µM): 4.24%
- viability, T/C (second compound 0.0949 µM, first compound 10 µM): 4.22%
- viability, T/C [21]: 4.84%
- viability, T/C [22]: 3.52%
- viability, T/C [23]: 3.6%
- viability, T/C [24]: 3.55%
- viability, T/C (second compound 0.3 µM, first compound 3.16 µM): 3.32%
- viability, T/C (second compound 0.3 µM, first compound 10 µM): 3.72%

SMILES: Nc1ccn(C2OC(CO)C(O)C2(F)F)c(=O)n1 (centres undefined) + CCn1c(-c2cccnc2C(C)OC)c2c3cc(ccc31)N1CCOC(CC(NC(=O)C(C(C)C)N(C)C(=O)C3(F)CCN(C(=O)C#CC(C)(C)N(C)C)CC3)C(=O)N3CCCC(N3)C(=O)OCC(C)(C)C2)C1
- IC50 (second compound 0.000949 µM): 4.49 nM
- IC50 (second compound 0.003 µM): 4.28 nM
- IC50 (second compound 0.00949 µM): 3.48 nM
- IC50 (second compound 0.03 µM): 4.6 nM
- IC50 (second compound 0.0949 µM): < 3.16 nM
- IC50 (second compound 0.3 µM): < 3.16 nM
- viability, T/C (second compound 0.000949 µM, first compound 0.00316 µM): 67.5%
- viability, T/C (second compound 0.000949 µM, first compound 0.01 µM): 10.1%
- viability, T/C [1]: 8.11%
- viability, T/C [2]: 7.98%
- viability, T/C [3]: 8.36%
- viability, T/C [4]: 8.73%
- viability, T/C (second compound 0.003 µM, first compound 0.00316 µM): 63.9%
- viability, T/C (second compound 0.003 µM, first compound 0.01 µM): 11.2%
- viability, T/C [5]: 8.78%
- viability, T/C [6]: 8.02%
- viability, T/C [7]: 8.07%
- viability, T/C [8]: 8.41%
- viability, T/C (second compound 0.00949 µM, first compound 0.00316 µM): 53.5%
- viability, T/C (second compound 0.00949 µM, first compound 0.01 µM): 10.5%
- viability, T/C [9]: 9.25%
- viability, T/C [10]: 7.85%
- viability, T/C [11]: 8.92%
- viability, T/C [12]: 8.55%
- viability, T/C (second compound 0.03 µM, first compound 0.00316 µM): 68.8%
- viability, T/C (second compound 0.03 µM, first compound 0.01 µM): 10.9%
- viability, T/C [13]: 8.53%
- viability, T/C [14]: 8.14%
- viability, T/C [15]: 8.68%
- viability, T/C [16]: 8.3%
- viability, T/C (second compound 0.0949 µM, first compound 0.00316 µM): 44.6%
- viability, T/C (second compound 0.0949 µM, first compound 0.01 µM): 10.5%
- viability, T/C [17]: 8.39%
- viability, T/C [18]: 7.33%
- viability, T/C [19]: 8.62%
- viability, T/C [20]: 7.75%
- viability, T/C (second compound 0.3 µM, first compound 0.00316 µM): 30.3%
- viability, T/C (second compound 0.3 µM, first compound 0.01 µM): 7.82%
- viability, T/C [21]: 6.28%
- viability, T/C [22]: 6.15%
- viability, T/C [23]: 6.47%
- viability, T/C [24]: 5.78%
